The results in this text go back to patent US20210393586A1, “Compounds for Use in the Treatment of Bacterial Infections” (Universität Konstanz, priority 2018, published 2021).

The test system of test [1] is P. aeruginosa PA14. Briefly: Bacterial growth curve analysis, P. aeruginosa PA14. Format: cell-based, Pseudomonas aeruginosa. The conditions noted are these: concentrations up to 100 μM, 27 h at 37° C. The method, then: (§1) In a sterile 15 mL polypropylene centrifuge tubes with screw caps (Roth) 20 μL of a respective DMSO Stock of the compounds represented by Formulas (2) and (5), or 20 μL DMSO as vehicle control was added for 1% final DMSO concentration. Then, 2 mL of LB medium and 6 μL of an overnight culture of P. aeruginosa PA01 or PA14 was added per sample. The samples were incubated for 27 h at 37° C. (190 rpm). At indicated incubation times 50 μL LB medium and 50 μL of culture were transferred in a cuvette, mixed and the adsorption measured at 600 nm.

Test [2] relates to quinolone and phenazine production of P. aeruginosa PA14. Briefly: Quinolone and phenazine inhibition in P. aeruginosa PA14 cultures, LC-MS/MS of supernatants. Format: cell-based, Pseudomonas aeruginosa. The method, then:
(§2) A LC-MS/MS method was established using characteristic mass transitions for quantitative analysis of metabolites in the supernatants of P. aeruginosa (Table 1, FIGS. 13 to 15). A library of phenazines and synthetic AQs and AQNOs served as standards (Szamosvári, D.; Böttcher, T., Angew Chem Int Ed Engl 2017, 56 (25), 7271-7275). There were also analyzed phenazines, including phenazine-1-carboxamide (PHZ-CA), 1-hydroxyphenazine (1-OH-PHZ), and pyocyanin (PYO), which are produced as virulence factors partially under control of the PQS quorum sensing system (FIG. 16a).
(§3) Ultra-high performance liquid chromatography was performed on a Dionex Ultimate 3000 UHPLC (Thermo Fisher Scientific, Waltham, Mass.) using a Nucleodur C18 Gravity-SB 150×2 mm, 3 μm column (Macherey-Nagel). The flow rate was 0.5 mL/min and the columns temperature was held at 40° C. The injection volume was 5 μL using pick up injection mode. Eluent A was 0.1% formic acid in water and eluent B was acetonitrile. The gradient was 20-100% B in 10 min, 100% B for 2 min, 100-20% B in 1 min and 20% B for 2 min. MS/MS analysis was performed by a Finnigan™ TSQ® Quantum (Thermo electron corporation) mass spectrometer in the SRM (Selected Reaction Monitoring) scan mode. As ion source a heated-electrospray ionization (HESI-II probe, Thermo scientific) was used. In the optimized conditions the ion spray voltage was 3500 V, vaporizer temperature 300° C., capillary temperature 380° C., sheath gas pressure 60 psi, ion sweep gas pressure 2 psi, aux gas 10 psi. The tube lens offset was 80 V and skimmer offset 0. Data were acquired in a mass range of m/z 130-350, and MS/MS acquisition of all compounds was performed in positive mode and fixed collision energy of 30 eV. Dwell time was 0.050 sec for all compounds.
The software Quan Browser Thermo Xcalibur 3.1.66.10 was used for quantitative analysis. The standard peak area of the product ions was fitted by linear regression versus the known concentrations to generate a standard curve. […]

The subject of the next test is P. aeruginosa PA01. In words: Bacterial growth curve analysis, P. aeruginosa PAO1. Particulars: concentrations up to 100 μM, 27 h at 37° C. Format: cell-based, Pseudomonas aeruginosa. On the procedure: as §1
Test [3] relates to quinolone and phenazine production of P. aeruginosa PAO1. Briefly: Quinolone and phenazine inhibition in P. aeruginosa PAO1 cultures, LC-MS/MS of supernatants. It is filed as cell-based, Pseudomonas aeruginosa. On the procedure:
as §2, §3
The software Quan Browser Thermo Xcalibur 3.1.66.10 was used for quantitative analysis. The standard peak area of the product ions was fitted by linear regression versus the known concentrations to generate a standard curve.
Cultures of P. aeruginosa strains PAO1 and PA14 were incubated with different concentrations of the compound represented by Formula (2) for 24 h and extracted culture supernatants were used for LC-MS/MS analysis.
10 μL of a respective DMSO stock solution of compound represented by Formula (2) or 10 μL DMSO as vehicle control (0.33% final DMSO concentration) was added to 3 mL LB medium in 15 mL polypropylene centrifuge tubes with screw caps (VWR) to obtain final concentrations of 10, 50 and 100 μM. Afterwards 10 μL of a P. aeruginosa PAO1 or PA14 overnight culture was added. The caps of the sample tubes were slightly opened and fixed in a defined position by tape to ensure equal oxygen delivery to all samples. […] (180 rpm). Afterwards, the samples were centrifuged and the supernatants sterile filtered. The inhibition assay was performed in 3-4 biological replicates.
500 μL of sterile supernatant was transferred in 1.5 mL glass vials, 500 μL chloroform was added and vortexed thoroughly. Then, 200 μL of the organic layer was transferred in a clean 1.5 mL glass vial and the solvent evaporated by a gentle stream of nitrogen. The extract was stored at −80° C. until measurement. For analysis, 50 μL acetonitrile/water (1:1) was added to each sample.
MeOH stock solutions of PQS, AQs, AQNOs and phenazines were prepared at 1 mg/mL in glass vials and stored at −80° C. A series of standard solutions was prepared freshly before LC-MS/MS analysis by serial dilutions of the stock solution of each analyte in acetonitrile/water (1:1).

Test [4] has as its system P. aeruginosa PA14. Briefly: Minimum inhibitory concentration, P. aeruginosa PA14. Format: cell-based. The conditions noted are these: Pseudomonas aeruginosa; P. aeruginosa PA14, LB, 24 h at 37° C. On the procedure:
(§4) An overnight culture of P. aeruginosa PAO1 or PA14 was diluted 1:1000 in LB media. Afterwards, 99 μL of bacterial suspension and 1 μL of a corresponding stock solution of the compound represented by Formula (2) in DMSO was added to each well of a sterile, round-bottom 96-well plate. The compound represented by Formula (2) was applied in final concentrations of 1000, 500, 100, 50, 10, 5, 1, 0.5, 0.1, 0.05 μM in triplicates. The plate was incubated for 24 h at 37° C. (180 rpm).

Another test concerns the target T1, PqsD (Pseudomonas aeruginosa, UniProt P20582).
T1 construct: expressed in transfected cells; host or cells: E. coli BL21 containing pDEST/pqsD, induced with anhydrotetracyclin
Briefly: Proteomic analysis of active site modification of PqsD after in situ inhibition. It is filed as cell-based. Particulars: PqsD inhibited in live E. coli cells, tryptic digest, LC-MS. On the procedure: In situ labelling was performed, and 2×SDS loading buffer was added directly to the resulting lysates. After SDS-PAGE and Coomassie staining, the protein band corresponding to PqsD was cut out of the gel. Then, tryptic digestion, sample preparation and LC-MS analysis were performed: Coomassie gel bands were washed in MilliQ for 15 sec, bands cut as close as possible and placed in Eppendorf tubes. For reduction and alkylation, a solution of 10 mM DTT in 50 mM NH4CO3 was added and incubated for 60 min at 56° C. The DTT solution was removed and a solution of 50 mM iodoacetamide in 50 mM NH4CO3 was added and incubated for 60 min at room temperature (rt). In a final washing step, the gel pieces were washed with 100 μL MilliQ water and 100 μL 50 mM NH4CO3 solution, then the solution was removed, and the gel dehydrated with acetonitrile/MilliQ water (3:2). The washing step was repeated until the gel pieces turned colorless. Next, the dehydration solution was removed, and acetonitrile was added for 10 sec before drying on air until complete dryness. The gel pieces were incubated for […] on ice in a freshly prepared cold buffer containing trypsin (10.0 ng/μL) and 50 mM NH4CO3. […] The combined washes and elutions were dried via SpeedVac and analyzed by an Orbitrap Fusion with EASY-nLC1200 instrument.

Test [5] concerns HHQ production of P. aeruginosa PAO1. Briefly: 2-ABA feeding of P. aeruginosa PAO1, HHQ quantified by LC-MS/MS. The conditions noted are these: P. aeruginosa PAO1 grown with 50 μM compound, 2-ABA total 12 mM, 11 h at 37° C. It is filed as cell-based, Pseudomonas aeruginosa. The method, then: 10 μL of a 5 mM stock of the compound represented by Formula (2) in DMSO or 10 μL of DMSO as vehicle control (1% final DMSO concentration) was added in 1 mL LB medium in 15 mL polypropylene centrifugal tubes. Then, 5 μL P. aeruginosa PAO1 overnight culture was added and grown at 37° C. (190 rpm). Due to the instability of 2-ABA, it was added in six portions. After several time points (6 h, 6.5 h, 7 h, 7.5 h, 8 h and 10 h) the cultures treated with the compound represented by Formula (2) were supplemented with 20 μL 100 mM 2-ABA stock in basic solution (1% NH4OH) or 20 μL basic solution (1% NH4OH) as vehicle control. To investigate the effect of basic solution, the DMSO containing control samples were supplemented with same amounts of basic solution compared to treated samples. The total amount of 2-ABA added to each sample was 12 mM and the pH of the cultures after addition of the total volume of basic solution was under pH 8. After 11 h cultures were centrifuged, supernatants sterile filtered and HHQ extracted and quantified by LC-MS/MS according to the previously described protocol.

For the next test, the system named is P. aeruginosa PAO1. Briefly: Minimum inhibitory concentration, P. aeruginosa PAO1. It is filed as cell-based. The conditions noted are these: Pseudomonas aeruginosa; P. aeruginosa PAO1, LB, 24 h at 37° C. The method, then:
as §4

T1 sequence (P20582 whole entry): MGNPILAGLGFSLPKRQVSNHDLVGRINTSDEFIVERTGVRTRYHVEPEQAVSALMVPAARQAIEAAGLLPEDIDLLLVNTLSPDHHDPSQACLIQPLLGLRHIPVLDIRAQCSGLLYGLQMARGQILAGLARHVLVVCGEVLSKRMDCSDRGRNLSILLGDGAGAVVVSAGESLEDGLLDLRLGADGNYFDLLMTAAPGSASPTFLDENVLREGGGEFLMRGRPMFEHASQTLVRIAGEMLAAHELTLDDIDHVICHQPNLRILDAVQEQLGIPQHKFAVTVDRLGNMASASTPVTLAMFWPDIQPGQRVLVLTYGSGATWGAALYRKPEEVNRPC

`Nc1ccccc1C(=O)CCl` [Formula (2), 2′-amino-1-chloro-acetophenone]: the “growth (OD 600 nm growth curve)” value in the test with P. aeruginosa PA14 [1] and in the test on P. aeruginosa PA01 was “largely unaffected” throughout. Further, the “production of all major quorum sensing signals, PQS and the chain length congeners of HHQ” value in test [2] (compared with PAO1 (complete inhibition between 50 μM and 100 μM), 24 h) is reported as “slightly lesser degree”; in test [3] (P. aeruginosa PAO1, between 50 μM and 100 μM, 24 h) it was “completely inhibited”. In addition, the “intensity of quinolones and phenazines (LC-MS/MS chromatograms)” value in test [2] (increasing concentrations 10, 50, 100 μM, 24 h) is “considerably decreased”; in test [3] (P. aeruginosa PAO1, increasing concentrations 10, 50, 100 μM, 24 h), “considerably decreased”. Further, in test [3] (Pseudomonas aeruginosa, PAO1, 24 h, read-out: average IC50 for production of all major quorum sensing signals, PQS and the chain length congeners of HHQ), the IC50 (in general, the point on the concentration scale where inhibition reaches its midpoint) is under 10 µM. Also, the “production of quinolone N-oxide congeners incl. HQNO, NQNO and trans-Δ1-NQNO” value in test [3] (dose response manner, 10, 50, 100 μM, strain not given, 24 h) is recorded as “inhibited”. Also, the “phenazine production (1-OH-PHZ, PHZ-CA, pyocyanin)” value in test [3] (strongest for 1-OH-PHZ and weakest for pyocyanin, strain not given, 24 h) was “down-regulation of phenazines”. For the same molecule, the MIC with P. aeruginosa PA14 [4] and against P. aeruginosa PAO1 was over 1000 µM each time. In addition, the “site of covalent binding in PqsD (six cysteines in total)” value on PqsD is recorded as “only bound to the active site cysteine (Cys112)”. Also, in test [5], the “HHQ production after external addition of 2-ABA to inhibited culture” value is on record as “partially restored”.
`O=C(CCl)c1cccc2cc[nH]c12` [Formula (5)]: the “growth (OD 600 nm growth curve)” value in the test with P. aeruginosa PA14 [1] and in the test with P. aeruginosa PA01 was “largely unaffected” each time. The “inhibition of quinolone production” value in test [2] (100 μM, 27 h at 37° C. (FIG. 20b)) is recorded as “observed”; in test [3] (P. aeruginosa PAO1, 100 μM, 27 h at 37° C. (FIG. 20a)) it was “observed”.
